Measured values taken from ChEMBL document CHEMBL1201862, “PubChem BioAssay data set” (2004).
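The compound was tested at five concentrations on cells cultured in 96-well plates, with a 48-hour exposure period. Here, GI50 denotes the concentration required for 50% inhibition of growth.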 Activity calls are given as the source filed them. Rule as the data show it: active = GI50 up to about 1.1 µM and inactive = higher.

Columns and labels:
Assay in all cases: growth of human tumour cells (NCI), 48 h
786-0 = test system: 786-0
A498 = test system: A498
HCT-116 = test system: HCT-116
HT-29 = test system: HT-29
IGROV-1 = test system: IGROV-1
KM12 = test system: KM12
M14 = test system: M14
Malme-3M = test system: Malme-3M
NCI-H460 = test system: NCI-H460
OVCAR-5 = test system: OVCAR-5
OVCAR-8 = test system: OVCAR-8
PC-3 = test system: PC-3
RPMI-8226 = test system: RPMI-8226
SK-MEL-2 = test system: SK-MEL-2
SK-MEL-5 = test system: SK-MEL-5
SNB-19 = test system: SNB-19
SNB-75 = test system: SNB-75
TK-10 = test system: TK-10
HCC 2998 = test system: HCC 2998
HL-60 = test system: HL-60

Structure (SMILES)	GI50 (786-0)	GI50 (A498)	GI50 (HCT-116)	GI50 (HT-29)	GI50 (IGROV-1)	GI50 (KM12)	GI50 (M14)	GI50 (Malme-3M)	GI50 (NCI-H460)	GI50 (OVCAR-5)	GI50 (OVCAR-8)	GI50 (PC-3)	GI50 (RPMI-8226)	GI50 (SK-MEL-2)	GI50 (SK-MEL-5)	GI50 (SNB-19)	GI50 (SNB-75)	GI50 (TK-10)	GI50 (HCC 2998)	GI50 (HL-60)
CN(C)C(=O)OC1=CC2CCC(C1)N2C (stereo not drawn)	> 100 µM (inactive)	> 100 µM (inactive)	> 100 µM (inactive)	> 100 µM (inactive)	71.4 µM (inactive)	> 100 µM (inactive)	79.1 µM (inactive)	> 100 µM (inactive)	32.4 µM (inactive)	> 100 µM (inactive)	> 100 µM (inactive)	97.5 µM (inactive)	> 100 µM (inactive)	> 100 µM (inactive)	> 100 µM (inactive)	> 100 µM (inactive)	> 100 µM (inactive)	> 100 µM (inactive)	–	–
CCOC(O)(NC(=O)C(C(F)(F)F)C(F)(F)F)C(F)(F)F (stereo not drawn)	> 100 µM (inactive)	> 100 µM (inactive)	> 100 µM (inactive)	> 100 µM (inactive)	> 100 µM (inactive)	–	> 100 µM (inactive)	–	–	> 100 µM (inactive)	> 100 µM (inactive)	> 100 µM (inactive)	> 100 µM (inactive)	> 100 µM (inactive)	> 100 µM (inactive)	> 100 µM (inactive)	> 100 µM (inactive)	> 100 µM (inactive)	> 100 µM (inactive)	> 100 µM (inactive)
Cc1cc2nc3c(N)nn(CCN(C)C)c3nc2cc1C	40.1 µM (inactive)	38.3 µM (inactive)	33.1 µM (inactive)	27.4 µM (inactive)	27 µM (inactive)	45.5 µM (inactive)	61.2 µM (inactive)	34.2 µM (inactive)	32.8 µM (inactive)	52 µM (inactive)	33.8 µM (inactive)	44.3 µM (inactive)	63.7 µM (inactive)	39 µM (inactive)	24.6 µM (inactive)	40.7 µM (inactive)	27.4 µM (inactive)	41.4 µM (inactive)	51.6 µM (inactive)	–
NCCCC[C@H](N)C(=O)Nc1ccc(-c2nc3ccccc3s2)cc1Cl	3.05 µM (inactive)	0.149 µM (active)	0.713 µM (active)	6.79 µM (inactive)	< 0.01 µM (active)	2.97 µM (inactive)	3.55 µM (inactive)	15.1 µM (inactive)	0.271 µM (active)	0.34 µM (active)	7.71 µM (inactive)	14.9 µM (inactive)	–	16.8 µM (inactive)	12.5 µM (inactive)	12.6 µM (inactive)	9.77 µM (inactive)	0.0353 µM (active)	0.681 µM (active)	–
COc1cc(/C=C2\N=C(c3ccccc3)N(c3ccc(S(=O)(=O)Nc4nccs4)cc3)C2=O)ccc1O	> 100 µM (inactive)	> 100 µM (inactive)	70.3 µM (inactive)	59.7 µM (inactive)	> 100 µM (inactive)	> 100 µM (inactive)	> 100 µM (inactive)	> 100 µM (inactive)	> 100 µM (inactive)	> 100 µM (inactive)	> 100 µM (inactive)	82.6 µM (inactive)	45 µM (inactive)	> 100 µM (inactive)	75.9 µM (inactive)	> 100 µM (inactive)	62.8 µM (inactive)	> 100 µM (inactive)	–	51.2 µM (inactive)
COC(=O)C[C@H](COCc1ccccc1)NC(=O)C[C@H](COCc1ccccc1)NC(=O)OC(C)(C)C	20.4 µM (inactive)	27.1 µM (inactive)	27.5 µM (inactive)	30 µM (inactive)	33.7 µM (inactive)	45.3 µM (inactive)	32.8 µM (inactive)	36.6 µM (inactive)	–	33.8 µM (inactive)	24.7 µM (inactive)	26.9 µM (inactive)	39.5 µM (inactive)	37.2 µM (inactive)	45.8 µM (inactive)	21.2 µM (inactive)	25.1 µM (inactive)	–	–	> 100 µM (inactive)
OC1(c2ccc(Cl)cc2)c2c(ccc3c2OCO3)C2=NCCN21 (stereo not drawn)	62.2 µM (inactive)	20.1 µM (inactive)	36.8 µM (inactive)	29.6 µM (inactive)	20.5 µM (inactive)	19.6 µM (inactive)	16.6 µM (inactive)	1.23 µM (inactive)	40.6 µM (inactive)	65.3 µM (inactive)	67.5 µM (inactive)	42.7 µM (inactive)	19.2 µM (inactive)	21.2 µM (inactive)	17.2 µM (inactive)	73.6 µM (inactive)	6.14 µM (inactive)	15 µM (inactive)	–	38.8 µM (inactive)
O=c1[nH]nc(-c2ccccc2)n1/N=C/c1ccco1	> 100 µM (inactive)	> 100 µM (inactive)	> 100 µM (inactive)	> 100 µM (inactive)	> 100 µM (inactive)	> 100 µM (inactive)	> 100 µM (inactive)	> 100 µM (inactive)	> 100 µM (inactive)	> 100 µM (inactive)	> 100 µM (inactive)	> 100 µM (inactive)	–	> 100 µM (inactive)	> 100 µM (inactive)	> 100 µM (inactive)	> 100 µM (inactive)	> 100 µM (inactive)	–	> 100 µM (inactive)
Brc1cccc(C2(CCCC3(c4cccc(Br)n4)OCCO3)OCCO2)n1	59.7 µM (inactive)	> 100 µM (inactive)	> 100 µM (inactive)	–	> 100 µM (inactive)	> 100 µM (inactive)	> 100 µM (inactive)	–	> 100 µM (inactive)	> 100 µM (inactive)	–	> 100 µM (inactive)	> 100 µM (inactive)	> 100 µM (inactive)	> 100 µM (inactive)	> 100 µM (inactive)	23.9 µM (inactive)	> 100 µM (inactive)	> 100 µM (inactive)	–
Cn1c(O)c(C2=Nc3ccccc3C2=O)c2ccccc21	> 100 µM (inactive)	> 100 µM (inactive)	> 100 µM (inactive)	> 100 µM (inactive)	> 100 µM (inactive)	> 100 µM (inactive)	> 100 µM (inactive)	> 100 µM (inactive)	> 100 µM (inactive)	> 100 µM (inactive)	> 100 µM (inactive)	> 100 µM (inactive)	> 100 µM (inactive)	> 100 µM (inactive)	> 100 µM (inactive)	> 100 µM (inactive)	> 100 µM (inactive)	> 100 µM (inactive)	> 100 µM (inactive)	–
O=C(c1ccco1)C1CC(c2ccc3ccccc3c2O)=NN1 (stereo not drawn)	98.9 µM (inactive)	> 100 µM (inactive)	57.4 µM (inactive)	86.5 µM (inactive)	> 100 µM (inactive)	> 100 µM (inactive)	54.8 µM (inactive)	> 100 µM (inactive)	> 100 µM (inactive)	> 100 µM (inactive)	83.2 µM (inactive)	70.8 µM (inactive)	42.9 µM (inactive)	71 µM (inactive)	89.5 µM (inactive)	–	> 100 µM (inactive)	> 100 µM (inactive)	> 100 µM (inactive)	–
